Measured values from ChEMBL document CHEMBL1671859, “bla(IMP-4) in different genetic contexts in Enterobacteriaceae isolates from Australia” (2008).

Assays:
Assay type in all cases: functional
Acinetobacter = experiment: Antibacterial activity against Acinetobacter isolate A74510 harboring blaIMP-4-qacG2-aacA4-catB3 array by Etest method in presence of clavulanic acid
Serratia marcescens [1] = experiment: Antibacterial activity against Serratia marcescens isolate Sm2723 harboring IncL/M plasmid and blaIMP-4-qacG2-aacA4-catB3 array by Etest method in presence of clavulanic acid
Serratia marcescens [2] = experiment: Antibacterial activity against Serratia marcescens isolate Sm265 harboring IncA/C plasmid and blaIMP-4-qacG2-aacA4-catB3 array by Etest method in presence of clavulanic acid
Morganella morganii = experiment: Antibacterial activity against Morganella morganii isolate Mm1229 harboring IncL/M plasmid and blaIMP-4-qacG2-aacA4-catB3 array by Etest method in presence of clavulanic acid
Serratia marcescens [3] = experiment: Antibacterial activity against Serratia marcescens isolate Sm220 harboring IncA/C plasmid and blaIMP-4-qacG2-aacA4-catB3 array by Etest method in presence of clavulanic acid
Klebsiella pneumoniae [4] = experiment: Antibacterial activity against Klebsiella pneumoniae isolate Kp149 harboring IncA/C plasmid and blaIMP-4-qacG2-aacA4-catB3 array by Etest method in presence of clavulanic acid
Klebsiella pneumoniae [5] = experiment: Antibacterial activity against Klebsiella pneumoniae isolate Kp1945 harboring IncL/M plasmid, blaIMP-4-qacG2-aacA4-catB3 and dfrA12-orfF-aadA2 arrays by Etest method in presence of clavulanic acid
Klebsiella pneumoniae [6] = experiment: Antibacterial activity against Klebsiella pneumoniae Kp7564 transconjugant harboring IncL/M plasmid and blaIMP-4-qacG2-aacA4-catB3 array by Etest method in presence of clavulanic acid
Enterobacter cloacae = experiment: Antibacterial activity against Enterobacter cloacae El3799 transconjugant harboring IncL/M plasmid and blaIMP-4-qacG2-aacA4-catB3 array by Etest method in presence of clavulanic acid
Citrobacter amalonaticus [7] = experiment: Antibacterial activity against Citrobacter amalonaticus isolate Ca1614 harboring IncL/M plasmid and blaIMP-4-qacG2-aacA4-catB3 array by Etest method in presence of clavulanic acid
Citrobacter amalonaticus [8] = experiment: Antibacterial activity against Citrobacter amalonaticus Ca38009 transconjugant harboring IncL/M plasmid and blaIMP-4-qacG2-aacA4-catB3 array by Etest method in presence of clavulanic acid
Klebsiella pneumoniae [9] = experiment: Antibacterial activity against Klebsiella pneumoniae isolate Kp211 harboring IncA/C plasmid and blaIMP-4-qacG2-aacA4-catB3 array by Etest method in presence of clavulanic acid
Citrobacter youngae = experiment: Antibacterial activity against Citrobacter youngae CyB38 transconjugant harboring blaIMP-4-qacG2-aacA4-catB3 array by Etest method in presence of clavulanic acid
Klebsiella pneumoniae [10] = experiment: Antibacterial activity against Klebsiella pneumoniae Kp1239 transconjugant harboring IncL/M plasmid and blaIMP-4-qacG2-aacA4-catB3 array by Etest method in presence of clavulanic acid

Measured: MIC

CC1(C)S[C@@H]2[C@H](NC(=O)[C@H](N)c3ccc(O)cc3)C(=O)N2[C@H]1C(=O)O [AMOXICILLIN]
> 16 µg/mL: Acinetobacter | Serratia marcescens [1] | Serratia marcescens [2] | Morganella morganii | Serratia marcescens [3] | Klebsiella pneumoniae [4] | Klebsiella pneumoniae [5] | Klebsiella pneumoniae [6] | Enterobacter cloacae | Citrobacter amalonaticus [7] | Citrobacter amalonaticus [8] | Klebsiella pneumoniae [9] | Citrobacter youngae | Klebsiella pneumoniae [10]
